Data taken from US8987249B2, “Substituted 2-Aza-bicyclo[2.2.1]heptane-3-carboxylic acid (benzyl-cyano-methyl)-amides inhibitors of Cathepsin C” (Boehringer Ingelheim International GmbH, priority 2013, dated 2015).
pIC50: −log10 of the molar value.

What was measured:
[1] = target: recombinant human Cathepsin K (Homo sapiens (Human), UniProt P43235); experiment: Inhibition of human Cathepsin K; format: biochemical; conditions: substrate Z-Gly-Pro-Arg-AMC
Summary of the method: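 Fluorogenic Z-Gly-Pro-Arg-AMC cleavage, 60 min at room temperature, after a 10 min enzyme–compound preincubation (enzyme 2 ng/μL; compound 0.1 nM–100 μM; 1% DMSO). Buffer pH 5.5 with sodium acetate, EDTA and L-cysteine; procathepsin first activated 30 min at pH 3.5. E64 (1 μM) stop; IC50 derived from percent of vehicle signal minus background (Ex 360/Em 460 nm).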

[2] = Determination of metabolic stability with human liver microsomes; conditions: human, pooled human liver microsomes, pH 7.6
Description: Determination of Metabolic Stability with Human Liver Microsomes
The metabolic degradation of the test compound is assayed at 37° C. with pooled human liver microsomes. The final incubation volume of 100 μl per time point contains TRIS buffer pH 7.6 (0.1 M), magnesium chloride (5 mM), microsomal protein (1 mg/ml) and the test compound at a final concentration of 1 μM. Following a short preincubation period at 37° C., the reactions are initiated by addition of beta-nicotinamide adenine dinucleotide phosphate, reduced form (NADPH, 1 mM) and terminated by transferring an aliquot into acetonitrile after different time points. Additionally, the NADPH-independent degradation is monitored in incubations without NADPH, terminated at the last time point. The [%] remaining test compound after NADPH independent incubation is reflected by the parameter c (control) (metabolic stability). The quenched incubations are pelleted by centrifugation (10,000 g, 5 min). An aliquot of the supernatant is assayed by LC-MS/MS for the amount of parent compound.
The half-life (t½ INVITRO) is determined by the slope of the semilogarithmic plot of the concentration-time profile.

[3] = target: recombinant human DPPI (Cathepsin C) (Homo sapiens (Human), UniProt P53634); experiment: Inhibition of human DPPI (Cathepsin C); format: biochemical; conditions: substrate Gly-Arg-AMC
recombinant human DPPI (Cathepsin C), sequence (P53634 231-394): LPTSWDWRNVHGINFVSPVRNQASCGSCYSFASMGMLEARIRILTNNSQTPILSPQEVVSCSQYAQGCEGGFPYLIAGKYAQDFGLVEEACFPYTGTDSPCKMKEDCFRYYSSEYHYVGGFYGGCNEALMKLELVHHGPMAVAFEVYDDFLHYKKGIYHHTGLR
recombinant human DPPI (Cathepsin C), sequence (P53634 395-463): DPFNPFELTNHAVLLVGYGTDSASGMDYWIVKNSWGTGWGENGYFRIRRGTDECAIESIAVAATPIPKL
recombinant human DPPI (Cathepsin C), sequence (P53634 25-134): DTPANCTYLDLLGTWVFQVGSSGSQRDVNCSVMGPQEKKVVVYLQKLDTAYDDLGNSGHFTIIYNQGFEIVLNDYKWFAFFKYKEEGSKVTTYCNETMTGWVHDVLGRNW
Summary of the method: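 Fluorescence read after 30 min room-temperature turnover of 50 μM (final) substrate by recombinant human cathepsin C, pH 6.0 MES/NaCl/DTT/BSA buffer, quenched by Gly-Phe-DMK (1 μM final). Activity as percent of vehicle after background subtraction, used for IC50.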

recombinant human Cathepsin K, sequence (P43235 115-329): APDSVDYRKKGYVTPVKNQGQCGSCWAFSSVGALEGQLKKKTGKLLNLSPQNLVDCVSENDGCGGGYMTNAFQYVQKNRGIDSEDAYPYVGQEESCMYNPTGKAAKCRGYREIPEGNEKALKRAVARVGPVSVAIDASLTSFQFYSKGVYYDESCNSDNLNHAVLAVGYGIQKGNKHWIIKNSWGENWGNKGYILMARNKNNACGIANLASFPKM

In the case of `N#C[C@H](Cc1ccc(-c2ccc(C(F)(F)F)s2)cc1F)NC(=O)[C@H]1N[C@@H]2CC[C@H]1C2` [Example 33], the pIC50 [1] was 5.32, the half-life at 1 μM [2] was > 2.17 h and the pIC50 [3] was 8.35.

With `N#Cc1ccc(-c2ccc(CC(C#N)NC(=O)[C@H]3N[C@@H]4CC[C@H]3C4)c(F)c2)cc1F` (stereo partly drawn) [Example 35] the pIC50 [1] was 5.36, the half-life at 1 μM [2] was > 2.17 h and the pIC50 [3] was 8.34.

With `N#Cc1ccc(-c2ccc(C[C@@H](C#N)NC(=O)[C@H]3N[C@H]4C[C@@H]3[C@@H]3C[C@@H]34)c(F)c2)s1` [Example 40] the pIC50 [1] was 5.11, the half-life at 1 μM [2] was > 2.17 h and the pIC50 [3] was 8.29.

For `N#CC(Cc1ccc(-c2ccc3c(c2)CNC3=O)cc1F)NC(=O)[C@H]1N[C@@H]2CC[C@H]1C2` (stereo partly drawn) [Example 41], the pIC50 [1] was 5.33, the half-life at 1 μM [2] was > 2.17 h and the pIC50 [3] was 8.28.

With `CN1CCc2cc(-c3ccc(C[C@@H](C#N)NC(=O)[C@H]4N[C@@H]5CC[C@H]4C5)c(F)c3)ccc2C1=O` [Example 42] the pIC50 [1] was 5.54, the half-life at 1 μM [2] was > 2.17 h and the pIC50 [3] was 8.28.

With `N#C[C@H](Cc1ccc(N2CCN3CCOCC3C2)cc1F)NC(=O)[C@H]1N[C@@H]2CC[C@H]1C2` (stereo partly drawn) [Example 43] the pIC50 [1] was 5.66, the half-life at 1 μM [2] was > 2.17 h and the pIC50 [3] was 8.25.

`N#C[C@H](Cc1ccc(-n2cc(COc3ccccc3)nn2)cc1F)NC(=O)[C@H]1N[C@@H]2CC[C@H]1C2` [Example 47] showed a pIC50 [1] of 5.47, a half-life at 1 μM [2] of 1.4 h and a pIC50 [3] of 8.14.

For `N#CC(Cc1ccc(-c2ccc3c(c2)CCNC3=O)cc1F)NC(=O)[C@H]1N[C@@H]2CC[C@H]1C2` (stereo partly drawn) [Example 49], the pIC50 [1] was 5.19, the half-life at 1 μM [2] was > 2.17 h and the pIC50 [3] was 8.14.

With `N#C[C@H](Cc1ccc(-c2cnn(CC3CCCO3)c2)cc1F)NC(=O)[C@H]1N[C@@H]2CC[C@H]1C2` (stereo partly drawn) [Example 50] the pIC50 [1] was 5.44, the half-life at 1 μM [2] was > 2.17 h and the pIC50 [3] was 8.13.

For `CS(=O)(=O)c1cc(-c2cc(F)c(CC(C#N)NC(=O)[C@H]3N[C@@H]4CC[C@H]3C4)c(F)c2)ccc1C#N` (stereo partly drawn) [Example 52], the pIC50 [1] was 4.77, the half-life at 1 μM [2] was > 2.17 h and the pIC50 [3] was 8.12.

With `N#CC(Cc1ccc(-c2cccc(C(N)=O)c2)cc1F)NC(=O)[C@H]1N[C@@H]2CC[C@H]1C2` (stereo partly drawn) [Example 53] the pIC50 [1] was 5.39, the half-life at 1 μM [2] was > 2.17 h and the pIC50 [3] was 8.10.

With `CS(=O)(=O)c1ccc(-c2ccc(CC(C#N)NC(=O)[C@H]3N[C@@H]4CC[C@H]3C4)c(F)c2)cc1` (stereo partly drawn) [Example 54] the pIC50 [1] was 5.35, the half-life at 1 μM [2] was > 2.17 h and the pIC50 [3] was 8.09.

For `CC(=O)N1CCC(Cn2cc(-c3ccc(C[C@@H](C#N)NC(=O)[C@H]4N[C@@H]5CC[C@H]4C5)c(F)c3)cn2)CC1` [Example 55], the pIC50 [1] was 5.41, the half-life at 1 μM [2] was > 2.17 h and the pIC50 [3] was 8.09.

For `N#C[C@H](Cc1ccc(-c2cnn(CC3CCOCC3)c2)cc1F)NC(=O)[C@H]1N[C@@H]2CC[C@H]1C2` [Example 57], the pIC50 [1] was 5.64, the half-life at 1 μM [2] was 1.58 h and the pIC50 [3] was 8.08.

For `Cc1cc(-c2ccc(CC(C#N)NC(=O)[C@H]3N[C@@H]4CC[C@H]3C4)c(F)c2)n[nH]1` (stereo partly drawn) [Example 58], the pIC50 [1] was 4.95, the half-life at 1 μM [2] was > 2.17 h and the pIC50 [3] was 8.08.

In the case of `CS(=O)(=O)Nc1ccc(-c2ccc(CC(C#N)NC(=O)[C@H]3N[C@@H]4CC[C@H]3C4)c(F)c2)cc1` (stereo partly drawn) [Example 62], the pIC50 [1] was 5.41, the half-life at 1 μM [2] was > 2.17 h and the pIC50 [3] was 8.04.
